Assay results reported in US8829034B2, “Compounds which modulate the CB2 receptor” (Boehringer Ingerlheim International GmbH, priority 2006, dated 2014).

Target: T1, human CB2R (Homo sapiens, UniProt P34972)
T1 construct: host or cells: CHO cells
Experiment: CB2R mediated modulation of cAMP synthesis
Format: cell-based
Settings: for agonistic activity: found through the use of the above described assays
Description: B. CB2R Mediated Modulation of cAMP Synthesis:
CHO cells expressing human CB2R (Euroscreen) were plated at a density of 5000 cells per well in 384 well plates and incubated overnight at 37° C. After removing the media, the cells were treated with test compounds diluted in stimulation buffer containing 1 mM IBMX, 0.25% BSA and 10 uM Forskolin. The assay was incubated for 30 minutes at 37° C. Cells were lysed and the cAMP concentration was measured using DiscoverX-XS cAMP kit, following the manufacturer's protocol. In this setting, agonists will decrease forskolin induced production of cAMP while inverse agonists will further increase forskolin induced production of cAMP. EC50 of agonists were calculated as follows. The maximal amount of cAMP produced by forskolin compared to the level of cAMP inhibited by 1 uM CP55940 is defined as 100%. The EC50 value of each test compound was determined as the concentration at which 50% of the forskolin-stimulated cAMP synthesis was inhibited. Data was analyzed using a four-parameter logistic model. (Model 205 of XLfit 4.0).

T1 sequence (P34972 whole entry): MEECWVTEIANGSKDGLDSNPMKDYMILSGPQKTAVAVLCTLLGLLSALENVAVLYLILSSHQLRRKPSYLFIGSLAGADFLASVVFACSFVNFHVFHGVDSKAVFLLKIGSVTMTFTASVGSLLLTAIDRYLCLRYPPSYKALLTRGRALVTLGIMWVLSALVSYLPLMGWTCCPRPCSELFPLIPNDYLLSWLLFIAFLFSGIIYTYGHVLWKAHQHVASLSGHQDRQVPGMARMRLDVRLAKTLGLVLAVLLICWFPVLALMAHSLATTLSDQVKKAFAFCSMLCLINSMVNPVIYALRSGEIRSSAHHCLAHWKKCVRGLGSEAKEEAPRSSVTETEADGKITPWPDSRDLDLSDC

| Structure (SMILES) | agonistic activity | EC50 [µM] |
| --- | --- | --- |
| CC(C)c1cc(NC(=O)C(C)(C)S(=O)(=O)CC2CCOCC2)on1 [N-(3-Isopropyl-isoxazol-5-yl)-2-methyl-2-(tetrahydro-pyran-4-ylmethanesulfonyl)-propionamide] | agonistic activity |  |
| Cn1nc(C(C)(C)C)cc1NC(=O)C(C)(C)S(=O)(=O)C(C)(C)C [N-(5-tert-Butyl-2-methyl-2H-pyrazol-3-yl)-2-methyl-2-(2-methyl-propane-2-sulfonyl)-propionamide] | agonistic activity |  |
| CCC(C)S(=O)(=O)C(C)(C)C(=O)Nc1ccc(C(F)(F)F)cn1 (stereo not drawn) [2-(Butane-2-sulfonyl)-2-methyl-N-(5-trifluoromethyl-pyridin-2-yl)-propionamide] | agonistic activity |  |
| CC(C)(C)c1cc(NC(=O)C(C)(C)S(=O)(=O)Cc2ccc(Cl)cc2)no1 [N-(5-tert-Butyl-isoxazol-3-yl)-2-(4-chloro-phenylmethanesulfonyl)-2-methyl-propionamide] | agonistic activity | 0.0166 |
| CCc1sc(NC(=O)C(C)(C)S(=O)(=O)CC2CCOCC2)nc1-c1ccccc1 [N-(5-Ethyl-4-phenyl-thiazol-2-yl)-2-methyl-2-(tetrahydro-pyran-4-ylmethanesulfonyl)-propionamide] | agonistic activity | 0.002 |
| CC(C)(C(=O)Nc1nc(-c2ccc(F)cc2)cs1)S(=O)(=O)CC1CCOCC1 [N-[4-(4-Fluoro-phenyl)-thiazol-2-yl]-2-methyl-2-(tetrahydro-pyran-4-ylmethanesulfonyl)-propionamide] | agonistic activity | 0.0055 |
| CC(C)(C(=O)Nc1nsc(-c2ccccc2)n1)S(=O)(=O)CC1CCOCC1 [2-Methyl-N-(5-phenyl-[1,2,4]thiadiazol-3-yl)-2-(tetrahydro-pyran-4-ylmethanesulfonyl)-propionamide] | agonistic activity | 0.0176 |
| Cn1nc(C(C)(C)C)cc1NC(=O)C(C)(C)S(=O)(=O)CC(C)(C)C [N-(5-tert-Butyl-2-methyl-2H-pyrazol-3-yl)-2-(2,2-dimethyl-propane-1-sulfonyl)-2-methyl-propionamide] | agonistic activity |  |
| CCC(C)S(=O)(=O)C(C)(C)C(=O)Nc1cc(C(C)(C)C)nn1C (stereo not drawn) [2-(Butane-2-sulfonyl)-N-(5-tert-butyl-2-methyl-2H-pyrazol-3-yl)-2-methyl-propionamide] | agonistic activity |  |
| CC(C)(C(=O)Nc1nc(-c2ccncc2)cs1)S(=O)(=O)CC1CCOCC1 [2-Methyl-N-(4-pyridin-4-yl-thiazol-2-yl)-2-(tetrahydro-pyran-4-ylmethanesulfonyl)-propionamide] | agonistic activity |  |
| CC(C)(C)c1nnc(NC(=O)C(C)(C)S(=O)(=O)C2CCCC2)s1 [N-(5-tert-Butyl-1,3,4-thiadiazol-2-yl)-2-cyclopentanesulfonyl-2-methyl-propionamide] | agonistic activity | 0.0186 |
| CC(C)(C)c1cc(NC(=O)C(C)(C)S(=O)(=O)Cc2ccc(F)cc2)on1 [N-(3-tert-Butyl-isoxazol-5-yl)-2-(4-fluoro-phenylmethanesulfonyl)-2-methyl-propionamide] | agonistic activity | 0.017 |
| CC(C)S(=O)(=O)C(C)(C)C(=O)Nc1cc(C(C)(C)C)no1 [N-(3-tert-Butyl-isoxazol-5-yl)-2-methyl-2-(propane-2-sulfonyl)-propionamide] | agonistic activity |  |
| CCCS(=O)(=O)C(C)(C)C(=O)Nc1ccc2ccccc2n1 [2-Methyl-2-(propane-1-sulfonyl)-N-quinolin-2-yl-propionamide] | agonistic activity |  |
| Cn1nc(C(C)(C)C)cc1NC(=O)C(C)(C)S(=O)(=O)CC1CCOCC1 [N-(5-tert-Butyl-2-methyl-2H-pyrazol-3-yl)-2-methyl-2-(tetrahydro-pyran-4-ylmethanesulfonyl)-propionamide] | agonistic activity |  |
| CC(C)S(=O)(=O)C(C)C(=O)Nc1nc(C(C)(C)C)cs1 (stereo not drawn) [N-(4-tert-Butyl-thiazol-2-yl)-2-(propane-2-sulfonyl)-propionamide] | agonistic activity |  |
| CC(C)(C(=O)Nc1nc(C(F)(F)F)cs1)S(=O)(=O)CC1CCOCC1 [2-Methyl-2-(tetrahydro-pyran-4-ylmethanesulfonyl)-N-(4-trifluoromethyl-thiazol-2-yl)-propionamide] | agonistic activity |  |
| CCc1ccnc(NC(=O)C(C)(C)S(=O)(=O)CC2CCOCC2)c1 [N-(4-Ethyl-pyridin-2-yl)-2-methyl-2-(tetrahydro-pyran-4-ylmethanesulfonyl)-propionamide] | agonistic activity |  |

| Structure (SMILES) | agonistic activity | EC50 [µM] |
| --- | --- | --- |
| CC(C)(C)c1cc(NC(=O)C(C)(C)S(=O)(=O)CCCc2ccccc2)no1 [N-(5-tert-Butyl-isoxazol-3-yl)-2-methyl-2-(3-phenyl-propane-1-sulfonyl)-propionamide] | agonistic activity |  |
| CC(C)(C)c1cc(NC(=O)C(C)(C)S(=O)(=O)CC2CC2)no1 [N-(5-tert-Butyl-isoxazol-3-yl)-2-cyclopropylmethanesulfonyl-2-methyl-propionamide] | agonistic activity | 0.0343 |
| CC(C)(C)c1csc(NC(=O)C(C)(C)S(=O)(=O)C2CCCC2)n1 [N-(4-tert-Butyl-thiazol-2-yl)-2-cyclopentanesulfonyl-2-methyl-propionamide] | agonistic activity | 0.019 |
| Cn1nc(C(C)(C)C)cc1NC(=O)C(C)(C)S(=O)(=O)C1CCOCC1 [N-(5-tert-Butyl-2-methyl-2H-pyrazol-3-yl)-2-methyl-2-(tetrahydro-pyran-4-sulfonyl)-propionamide] | agonistic activity |  |
| CCCS(=O)(=O)C(C)(C)C(=O)Nc1cc(-c2ccccc2)nn1C [2-Methyl-N-(2-methyl-5-phenyl-2H-pyrazol-3-yl)-2-(propane-1-sulfonyl)-propionamide] | agonistic activity |  |
| Cc1nc(NC(=O)C(C(C)C)S(=O)(=O)C(C)C)sc1C(C)(C)C (stereo not drawn) [N-(5-tert-Butyl-4-methyl-thiazol-2-yl)-3-methyl-2-(propane-2-sulfonyl)-butyramide] | agonistic activity |  |
| CC(C)(C)c1cc(NC(=O)C(C)(C)S(=O)(=O)CC2CCOC2)on1 (stereo not drawn) [N-(3-tert-Butyl-isoxazol-5-yl)-2-methyl-2-(tetrahydro-furan-3-ylmethanesulfonyl)-propionamide] | agonistic activity | 0.0185 |
| CC(C)(C)C(=O)CS(=O)(=O)C(C)(C)C(=O)Nc1ccc(C(F)(F)F)cn1 [2-(3,3-Dimethyl-2-oxo-butane-1-sulfonyl)-2-methyl-N-(5-trifluoromethyl-pyridin-2-yl)-propionamide] | agonistic activity | 0.0415 |
| Cc1sc(NC(=O)C(C)(C)S(=O)(=O)CC2CCOCC2)nc1-c1ccccc1 [2-Methyl-N-(5-methyl-4-phenyl-thiazol-2-yl)-2-(tetrahydro-pyran-4-ylmethanesulfonyl)-propionamide] | agonistic activity | 0.0025 |
| CC(C)(C(=O)Nc1nc(-c2ccc(Cl)cc2)cs1)S(=O)(=O)CC1CCOCC1 [N-[4-(4-Chloro-phenyl)-thiazol-2-yl]-2-methyl-2-(tetrahydro-pyran-4-ylmethanesulfonyl)-propionamide] | agonistic activity | 0.0022 |
| CCCc1cc(NC(=O)C(C)(C)S(=O)(=O)CC2CCOCC2)on1 [2-Methyl-N-(3-propyl-isoxazol-5-yl)-2-(tetrahydro-pyran-4-ylmethanesulfonyl)-propionamide] | agonistic activity |  |
| Cn1nc(-c2ccccc2)cc1NC(=O)C(C)(C)S(=O)(=O)C1CCCC1 [2-Cyclopentanesulfonyl-2-methyl-N-(2-methyl-5-phenyl-2H-pyrazol-3-yl)-propionamide] | agonistic activity |  |
| CC(C)S(=O)(=O)C(C)(C)C(=O)Nc1cc(C(C)(C)C)on1 [N-(5-tert-Butyl-isoxazol-3-yl)-2-methyl-2-(propane-2-sulfonyl)-propionamide] | agonistic activity |  |
| CC(C)(C)c1cc(NC(=O)C(C)(C)S(=O)(=O)CC(F)(F)F)no1 [N-(5-tert-Butyl-isoxazol-3-yl)-2-methyl-2-(2,2,2-trifluoro-ethanesulfonyl)-propionamide] | agonistic activity |  |
| CC(C)(C)c1cc(NC(=O)C(C)(C)S(=O)(=O)C(C)(C)C)no1 [N-(5-tert-Butyl-isoxazol-3-yl)-2-methyl-2-(2-methyl-propane-2-sulfonyl)-propionamide] | agonistic activity |  |
| CCCS(=O)(=O)C(C)(C)C(=O)Nc1nc(C(F)(F)F)cs1 [2-Methyl-2-(propane-1-sulfonyl)-N-(4-trifluoromethyl-thiazol-2-yl)-propionamide] | agonistic activity |  |
| CCCS(=O)(=O)C(C)(C)C(=O)Nc1ccc(C(F)(F)F)cn1 [2-Methyl-2-(propane-1-sulfonyl)-N-(5-trifluoromethyl-pyridin-2-yl)-propionamide] | agonistic activity |  |
| CCCC(CC)S(=O)(=O)C(C)(C)C(=O)Nc1cc(C(C)(C)C)nn1C (stereo not drawn) [N-(5-tert-Butyl-2-methyl-2H-pyrazol-3-yl)-2-(hexane-3-sulfonyl)-2-methyl-propionamide] | agonistic activity |  |
